# Measurements from PubChem BioAssay AID2060900 (Molecular Pharmacology Branch, DTP, NCI, 2025).
# Test system: 521955-158-R2-J5-PDC complex spheroids, viability
# Assay: Anticancer human tumor 521955-158-R2-J5-PDC patient-derived pancreatic carcinoma cell line growth inhibition [RAS]
# Conditions: for IC50: curve of first compound; for viability, T/C: stronger effect = lower value
# Outline: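 Multi-cell-type spheroids: tumor cells plus HUVEC endothelial cells and mesenchymal stem cells. RAS-pathway inhibitors were combined with targeted agents, each dosed in half-log steps down from clinical Cmax, or from 10 microM when Cmax was unknown.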
# 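Also: compound exposure lasted seven days before the viability read.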
# 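For viability, T/C in this document: spheroids also contain HUVEC endothelial cells and mesenchymal stem cells as stroma.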
structure (smiles),measurement,setting,value
CC(C)n1nc(-c2ccc3oc(N)nc3c2)c2c(N)ncnc21 + C=CC(=O)N1CCN(c2nc(OCC3CCCN3C)nc3c(F)c(-c4nc(N)cc(C)c4C(F)(F)F)c(Cl)cc23)C(C)C1,IC50,second compound 0.00316 µM,25.5 nM
same,IC50,second compound 0.01 µM,31.2 nM
same,IC50,second compound 0.0316 µM,25.7 nM
same,IC50,second compound 0.1 µM,26.3 nM
same,IC50,second compound 0.316 µM,22.2 nM
same,IC50,second compound 1 µM,27.3 nM
same,"viability, T/C","second compound 0.00316 µM, first compound 0.000316 µM",103%
same,"viability, T/C","second compound 0.00316 µM, first compound 0.001 µM",77.8%
same,"viability, T/C","second compound 0.00316 µM, first compound 0.00316 µM",95.7%
same,"viability, T/C","second compound 0.00316 µM, first compound 0.01 µM",79.1%
same,"viability, T/C","second compound 0.00316 µM, first compound 0.0316 µM",43.5%
same,"viability, T/C","second compound 0.00316 µM, first compound 0.1 µM",34.5%
same,"viability, T/C","second compound 0.01 µM, first compound 0.000316 µM",93.8%
same,"viability, T/C","second compound 0.01 µM, first compound 0.001 µM",113%
same,"viability, T/C","second compound 0.01 µM, first compound 0.00316 µM",95.9%
same,"viability, T/C","second compound 0.01 µM, first compound 0.01 µM",88%
same,"viability, T/C","second compound 0.01 µM, first compound 0.0316 µM",49.3%
same,"viability, T/C","second compound 0.01 µM, first compound 0.1 µM",29.5%
same,"viability, T/C","second compound 0.0316 µM, first compound 0.000316 µM",76%
same,"viability, T/C","second compound 0.0316 µM, first compound 0.001 µM",134%
same,"viability, T/C","second compound 0.0316 µM, first compound 0.00316 µM",87.1%
same,"viability, T/C","second compound 0.0316 µM, first compound 0.01 µM",93.7%
same,"viability, T/C","second compound 0.0316 µM, first compound 0.0316 µM",40.5%
same,"viability, T/C","second compound 0.0316 µM, first compound 0.1 µM",29.7%
same,"viability, T/C","second compound 0.1 µM, first compound 0.000316 µM",141%
same,"viability, T/C","second compound 0.1 µM, first compound 0.001 µM",141%
same,"viability, T/C","second compound 0.1 µM, first compound 0.00316 µM",109%
same,"viability, T/C","second compound 0.1 µM, first compound 0.01 µM",79.7%
same,"viability, T/C","second compound 0.1 µM, first compound 0.0316 µM",42.6%
same,"viability, T/C","second compound 0.1 µM, first compound 0.1 µM",31.3%
same,"viability, T/C","second compound 0.316 µM, first compound 0.000316 µM",141%
same,"viability, T/C","second compound 0.316 µM, first compound 0.001 µM",134%
same,"viability, T/C","second compound 0.316 µM, first compound 0.00316 µM",91.3%
same,"viability, T/C","second compound 0.316 µM, first compound 0.01 µM",68.9%
same,"viability, T/C","second compound 0.316 µM, first compound 0.0316 µM",42.9%
same,"viability, T/C","second compound 0.316 µM, first compound 0.1 µM",33.4%
same,"viability, T/C","second compound 1 µM, first compound 0.000316 µM",149%
same,"viability, T/C","second compound 1 µM, first compound 0.001 µM",90.5%
same,"viability, T/C","second compound 1 µM, first compound 0.00316 µM",87.6%
same,"viability, T/C","second compound 1 µM, first compound 0.01 µM",79.2%
same,"viability, T/C","second compound 1 µM, first compound 0.0316 µM",42.4%
same,"viability, T/C","second compound 1 µM, first compound 0.1 µM",28.8%
